Assay results taken from article PMC5706701, “Development of a homogenous high-throughput assay for inositol hexakisphosphate kinase 1 activity” (PLoS ONE, 2017).
“Also recorded” adds a separate entry of the source. Read-outs that look alike come from different tables or passages of the source.

Key:
Human IP6K1 [1] = molecular target: T1, Human IP6K1 (Homo sapiens, UniProt Q92551); assay: IP6K1 inhibition dose-response assay (ADP-Glo Max); format: biochemical; settings: for IC50: read-out: IC50 IP6K1
T1 construct: GST (N, cleaved yes); made in house; host or cells: C43 E. coli, pGEX-6P-2

[2] = tested on: enzymes involved in the detection steps of the kit; assay: Counter-screen against the detection steps of the ADP-Glo Max kit (no enzyme, no IP6); format: biochemical; settings: 10μM compound, 25μM ADP and 975μM ATP
Method: The Sigma LOPAC was obtained as 10mM DMSO stock solutions from the Johns Hopkins ChemCore facility. Each compound was first diluted to 50μM and 25% DMSO in assay buffer. The inhibition assay was performed as described above with 1μL of compound and 4μL of kinase master mix so that the final compound concentration was 10μM in 5% DMSO. […] Hits were determined based by the Z score, which is calculated as Z = (Xi-Xavg)/Sx, where Xi is the raw measurement on the i^th compound, Xavg and Sx are the mean and the standard deviation, respectively, of all measurements within the plate. Hits identified from the screen were repeated in the assay in quadruplicate for confirmation. These confirmed hits were then tested to determine if they inhibited the enzymes involved in the detection steps of the kit. Possible interference of the compounds was assessed by measuring the degree to which they inhibited the signal produced by a 25μM ADP in the presence of 975μM ATP. This experiment was run as described above for the inhibition assays in the absence of enzyme and IP6.

Human IP6K1 [3] = molecular target: T1, Human IP6K1; assay: Inositol polyphosphate separation by PAGE (5PP-IP5 production by IP6K1); format: biochemical; settings: 10μM inhibitor, 1mM ATP, 250μM IP6, 60nM IP6K1, 2 hours, 37°C
DIO mice = tested on: DIO mice; set-up: method as in PMID 27689003; settings: DIO model, mice treated with TNP; cited from earlier work
[4] = cited from earlier work
[5] = cited from earlier work; remark: listed apart in the source

T1 sequence (Q92551 whole entry): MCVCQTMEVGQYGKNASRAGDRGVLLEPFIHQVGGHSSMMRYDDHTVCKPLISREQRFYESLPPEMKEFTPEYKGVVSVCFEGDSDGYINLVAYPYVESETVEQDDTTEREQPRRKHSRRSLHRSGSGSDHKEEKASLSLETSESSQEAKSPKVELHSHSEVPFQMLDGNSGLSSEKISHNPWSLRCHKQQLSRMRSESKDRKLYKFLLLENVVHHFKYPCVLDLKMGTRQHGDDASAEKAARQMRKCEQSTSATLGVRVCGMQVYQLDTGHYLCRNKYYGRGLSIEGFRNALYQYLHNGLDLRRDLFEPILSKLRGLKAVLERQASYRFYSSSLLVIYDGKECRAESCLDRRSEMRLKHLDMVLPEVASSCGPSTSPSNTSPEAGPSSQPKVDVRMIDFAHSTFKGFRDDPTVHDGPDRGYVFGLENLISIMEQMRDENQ

With `O=[N+]([O-])c1ccc(CNc2nc(NCc3cccc(C(F)(F)F)c3)nc3nc[nH]c23)cc1` [TNP, N2-(m-trifluorobenzyl), N6-(p-nitrobenzyl)purine] the IC50 (Human IP6K1 [1]; 50μM IP6, 300μM ATP, 60nM IP6K1, 15 minutes) was 24 ± 1.5 µM, the IC50 (Human IP6K1 [1]; 62.5μM ATP, 400μM IP6, 60nM IP6K1, 30 minutes, 37°C) was 12 ± 1.1 µM and the IC50 (Human IP6K1 [1]; 100μM IP6, 300μM ATP, 60nM IP6K1, 15 minutes) was 20 ± 4.5 µM. The IC50 (Human IP6K1 [1]; 200μM IP6, 300μM ATP, 60nM IP6K1, 15 minutes) was 21 ± 1.8 µM, the IC50 (Human IP6K1 [1]; 250μM ATP, 400μM IP6, 60nM IP6K1, 30 minutes, 37°C) was 16 ± 1.1 µM and the IC50 (Human IP6K1 [1]; 400μM IP6, 300μM ATP, 60nM IP6K1, 15 minutes) was 9.5 ± 1.5 µM. For the same molecule, the IC50 (Human IP6K1 [1]; 2mM ATP, 400μM IP6, 60nM IP6K1, 30 minutes, 37°C) was 39 ± 1.1 µM, the “Mode of inhibition of IP6K1” value (Human IP6K1 [1]; from IC50 shift with ATP or IP6 concentration) was “ATP competitive inhibitor; also recorded: IP6 is not competitive with TNP” and the “Signal loss in counter-screen of detection steps” value [2] was “neither TNP nor 6-Hydroxy-DL-Dopa showed significant signal loss”. For the same molecule, the “Inhibition of 5PP-IP5 production by IP6K1 (PAGE, Toluidine Blue)” value (Human IP6K1 [3]) was “inhibit 5PP-IP5 production in this experiment at 10μM albeit to a lesser degree”, the “Performance in insulin and glucose tolerance tests” value (DIO mice) was “better performance in insulin and glucose tolerance tests” and the Pharmacokinetic properties [4] was “poor pharmacokinetic properties”. For the same molecule, the Brain penetration ([4]; in vivo) was “low brain penetration” and the “Solubility in aqueous media” value [5] was “insolubility in aqueous media”.
